Patent publication US20120053197A1, “TRICYCLIC PYRIDINE DERIVATIVES, MEDICAMENTS CONTAINING SUCH COMPOUNDS, THEIR USE AND PROCESS FOR THEIR PREPARATION” (BOEHRINGER INGELHEIM INTERNATIONAL GMBH, priority 2010, published 2012)
pIC50: −log10 of the molar value.

Molecular target: T1, recombinant human CETP (Homo sapiens, UniProt P11597)
T1 construct: made in house; host or cells: CHO cells (protein secreted into conditioned medium)
T1 sequence (P11597 18-493): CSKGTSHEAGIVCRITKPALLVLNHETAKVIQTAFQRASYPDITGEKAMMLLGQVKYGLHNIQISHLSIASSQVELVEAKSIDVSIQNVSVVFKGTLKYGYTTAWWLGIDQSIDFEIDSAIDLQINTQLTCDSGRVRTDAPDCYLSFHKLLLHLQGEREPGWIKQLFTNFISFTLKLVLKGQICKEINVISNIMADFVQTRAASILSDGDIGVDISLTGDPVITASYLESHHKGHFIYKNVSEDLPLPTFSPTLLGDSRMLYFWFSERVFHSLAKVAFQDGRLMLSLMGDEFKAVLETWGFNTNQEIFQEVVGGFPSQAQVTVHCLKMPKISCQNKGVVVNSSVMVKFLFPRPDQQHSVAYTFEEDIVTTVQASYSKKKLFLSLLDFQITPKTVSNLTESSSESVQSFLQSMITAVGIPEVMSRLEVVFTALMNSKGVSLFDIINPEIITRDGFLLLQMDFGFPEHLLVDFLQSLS
Experiment: CETP in vitro fluorometric assay (Roar Biomedical), cholesterol ester transfer from HDL to LDL
Format: biochemical
Conditions: recombinant human CETP from CHO cells; 3 hours at 37° C.; fluorescence ex 485 nm / em 535 nm; compound concentrations between 1 nM and 30 μM; read-out: IC50 values for inhibition of CETP
Experimental: CETP inhibitory activity of compounds of the present invention can be determined in a fluorometric assay puchased from Roar Biomedical, Inc. (New York, N.Y., USA). […] Recombinant human CETP was partially purified from medium conditioned by CETP expressing CHO cells. In a 384 well format 2.5 μl of compound solution in DMSO was combined with 2 μl of donor solution, 2 μl of acceptor solution and 0.8 μl of recombinant human CETP solution in a total volume of 100 μl with assay buffer and incubated for 3 hours at 37° C. The fluorescence intensity was measured at excitation wavelength of 485 nm and emission wavelength of 535 nm. IC50 values are calculated from dose effect curves from compound concentrations between 1 nM and 30 μM.

Row | SMILES | pIC50
1 | CC(C)c1nc2c(c3c1[C@@H](c1ccc(C(C)(C)O)cc1)OC31CCCC1)[C@@H](O)CC(C)(C)C2 [1(26), (3′R,9′S)-3′-(4-(2-hydroxypropan-2-yl)phenyl)-4′-isopropyl-7′,7′-dimethyl-6′,7′,8′,9′-tetrahydro-3′H-spiro[cyclopentane-1,1′-furo[3,4-c]quinolin]-9′-ol] | 6.06
2 | CC(C)c1nc2c(c3c1[C@@H](c1ccc(C#N)cc1)OC31CCCC1)[C@@H](O)CC(C)(C)C2 [1(20), 4-((3′R,9′S)-9′-hydroxy-4′-isopropyl-7′,7′-dimethyl-6′,7′,8′,9′-tetrahydro-3′H-spiro[cyclopentane-1,1′-furo[3,4-c]quinoline]-3′-yl)benzonitrile] | 5.97
3 | CC(C)c1ccc([C@H]2OC3(CCCC3)c3c2c(C(C)C)nc2c3[C@@H](O)CC(C)(C)C2)cc1 [1(7), (3′R,9′S)-4′-isopropyl-3′-(4-isopropylphenyl)-7′,7′-dimethyl-6′,7′,8′,9′-tetrahydro-3′H-spiro[cyclopentane-1,1′-furo[3,4-c]quinolin]-9′-ol] | 7.11
4 | CC(C)c1nc2c(c3c1[C@@H](c1cnc(C(C)(C)C)nc1)OC31CCCC1)[C@@H](O)CC(C)(C)C2 [1(25), (3′R,9′S)-3′-(2-tert-butylpyrimidin-5-yl)-4′-isopropyl-7′,7′-dimethyl-6′,7′,8′,9′-tetrahydro-3′H-spiro[cyclopentane-1,1′-furo[3,4-c]quinolin]-9′-ol] | 6.11
5 | CC1(C)Cc2nc(C3CCOCC3)c3c(c2[C@@H](O)C1)C1(CCCC1)O[C@H]3c1ccc(C(F)(F)F)cc1 [1(13), (3′S,9′S)-7′,7′-dimethyl-4′-(tetrahydro-2H-pyran-4-yl)-3′-(4-(trifluoromethyl)phenyl)-6′,7′,8′,9′-tetrahydro-3′H-spiro[cyclopentane-1,1′-furo[3,4-c]quinolin]-9′-ol] | 5.16

More lines, now with the values ahead:

Row | pIC50 | SMILES
6 | 6.86 | CC(=O)O[C@@H]1c2nc(C(C)C)c3c(c2[C@@H](O)CC1(C)C)C1(CCCC1)O[C@@H]3c1ccc(C(F)(F)F)cc1 [1(34), (3′R,6′S,9′S)-9′-hydroxy-4′-isopropyl-7′,7′-dimethyl-3′-(4-(trifluoromethyl)phenyl)-6′,7′,8′,9′-tetrahydro-3′H-spiro[cyclopentane-1,1′-furo[3,4-c]quinoline]-6′-yl acetate]
7 | 6.64 | CC(=O)O[C@H]1c2nc(C(C)C)c3c(c2[C@@H](O)CC1(C)C)C1(CCCC1)O[C@@H]3c1ccc(C(F)(F)F)cc1 [1(33), (3′R,6′R,9′S)-9′-hydroxy-4′-isopropyl-7′,7′-dimethyl-3′-(4-(trifluoromethyl)phenyl)-6′,7′,8′,9′-tetrahydro-3′H-spiro[cyclopentane-1,1′-furo[3,4-c]quinoline]-6′-yl acetate]
8 | 7.60 | CC(C)c1nc2c(c3c1[C@@H](c1ccc(C(C)(C)C)cc1)OC31CCOCC1)[C@@H](O)CC(C)(C)C2 [1(42), (3R,9S)-3-(4-tert-butylphenyl)-4-isopropyl-7,7-dimethyl-2′,3′,5′,6,6′,7,8,9-octahydro-3H-spiro[furo[3,4-c]quinoline-1,4′-pyran]-9-ol]
9 | 7.70 | CC(C)c1nc2c(c3c1[C@@H](c1ccc(C(F)(F)F)cc1)OC31CCCC1)[C@@H](O)CC(C)(C)[C@H]2O [Example 3, (3′R,6′R,9′S)-4′-isopropyl-7′,7′-dimethyl-3′-(4-(trifluoromethyl)phenyl)-6′,7′,8′,9′-tetrahydro-3′H-spiro[cyclopentane-1,1′-furo[3,4-c]quinoline]-6′,9′-diol]
10 | 7.16 | CC(C)c1nc2c(c3c1[C@@H](c1ccc(C4(C#N)CC4)cc1)OC31CCCC1)[C@@H](O)CC(C)(C)C2 [1(44), 1-(4-((3′R,9′S)-9′-hydroxy-4′-isopropyl-7′,7′-dimethyl-6′,7′,8′,9′-tetrahydro-3′H-spiro[cyclopentane-1,1′-furo[3,4-c]quinoline]-3′-yl)phenyl)cyclopropanecarbonitrile]
